This is an account of results in US6667312B2, “Thioether substituted imidazoquinolines” (3M Innovative Properties Company, priority 2000, dated 2003).

One series has as its system interferon (α). Kind of series: Cytokine Induction in Human Cells: interferon. The series is classed as cell-based. To be noted: human PBMC, 18 to 24 hours, tested 30-0.014 μM, interferon (α) by ELISA; read-out: Lowest Effective Concentration (μM) Interferon. From the text: (§1) An in vitro human blood cell system is used to assess cytokine induction. Activity is based on the measurement of interferon and tumor necrosis factor (α) (IFN and TNF, respectively) secreted into culture media as described by Testerman et. al. In “Cytokine Induction by the Immunomodulators Imiquimod and S-27609”, Journal of Leukocyte Biology, 58, 365-372 (September, 1995).
(§2) Whole blood from healthy human donors is collected by venipuncture into EDTA vacutainer tubes. Peripheral blood mononuclear cells (PBMC) are separated from whole blood by density gradient centrifugation using Histopaque®-1077. Blood is diluted 1:1 with Dulbecco's Phosphate Buffered Saline (DPBS) or Hank's Balanced Salts Solution (HBSS). The PBMC layer is collected and washed twice with DPBS or HBSS and resuspended at 4×10^6 cells/mL in RPMI complete. The PBMC suspension is added to 48 well flat bottom sterile tissue culture plates (Costar, Cambridge, Mass. or Becton Dickinson Labware, Lincoln Park, N.J.) containing an equal volume of RPMI complete media containing test compound.
(§3) The compounds are solubilized in dimethyl sulfoxide (DMSO). The DMSO concentration should not exceed a final concentration of 1% for addition to the culture wells. The compounds are generally tested at concentrations ranging from 30-0.014 μM.
(§4) The solution of test compound is added at 60 μM to the first well containing RPMI complete and serial 3 fold dilutions are made in the wells. The PBMC suspension is then added to the wells in an equal volume, bringing the test compound concentrations to the desired range (30-0.014 μM). The final concentration of PBMC suspension is 2×10^6 cells/mL. The plates are covered with sterile plastic lids, mixed gently and then incubated for 18 to 24 hours at 37° C. in a 5% carbon dioxide atmosphere.
(§5) Following incubation the plates are centrifuged for 10 minutes at 1000 rpm (˜200× g) at 4° C. The cell-free culture supernatant is removed with a sterile polypropylene pipet and transferred to sterile polypropylene tubes. Samples are maintained at −30 to −70° C. until analysis. The samples are analyzed for interferon (α) by ELISA and for tumor necrosis factor (α) by ELISA or IGEN Assay
Interferon (α) concentration is determined by ELISA using a Human Multi-Species kit from PBL Biomedical Laboratories, New Brunswick, N.J. Results are expressed in pg/mL.
(§6) The table below lists the lowest concentration found to induce interferon and the lowest concentration found to induce tumor necrosis factor for each compound.
Background: ELISA stands for enzyme-linked immunosorbent assay.

For series [1], the system named is tumor necrosis factor (α). Kind of series: Cytokine Induction in Human Cells: tumor necrosis factor. Conditions: human PBMC, 18 to 24 hours, tested 30-0.014 μM, TNF by ELISA or IGEN assay; read-out: Lowest Effective Concentration (μM) Tumor Necrosis Factor. It is filed as cell-based.
Description: as §1, §2, §3, §4, §5
Tumor necrosis factor (α) (TNF) concentration is determined using ELISA kits available from Biosource International, Camarillo, Calif. Alternately, the TNF concentration can be determined by Origen® M-Series Immunoassay and read on an IGEN M-8 analyzer from IGEN International, Gaithersburg, Md. The immunoassay uses a human TNF capture and detection antibody pair from Biosource International, Camarillo, Calif. Results are expressed in pg/mL.
as §6

The structures appear in SMILES notation. Counter-ions that a name gives are not always drawn.

As a reminder, the melting point is the temperature of the solid-liquid transition. With `CCCCc1nc2c(N)nc3c(c2n1CCSc1ccccc1)CCCC3` (as salt: hydrochloride) [Example 2, 2-butyl-1-[2-(phenylthio)ethyl]-6,7,8,9-tetrahydro-1H-imidazo[4,5-c]quinolin-4-amine Hydrochloride], the melting point fell in the range of 237 to 238 °C.
Turning to `CCCCc1nc2c(N)nc3c(c2n1CCSc1ccccc1)CCCC3` [Example 2, 2-butyl-1-[2-(phenylthio)ethyl]-6,7,8,9-tetrahydro-1H-imidazo[4,5-c]quinolin-4-amine Hydrochloride], the minimal effective concentration stood at 0.12 µM in the series on interferon (α) and 0.37 µM in series [1].
The matching figures for `CCCCc1nc2c(N)nc3ccccc3c2n1CCCCCS(C)(=O)=O` [Example 11, 2-butyl-1-[5-(methylsulfonyl)pentyl]-1H-imidazo[4,5-c]quinolin-4-amine]: 0.01 µM and 0.12 µM.
Regarding `CCc1nc2c(N)nc3ccccc3c2n1CCCCCS(C)(=O)=O` [Example 13, 2-ethyl-1-[5-(methylsulfonyl)pentyl]-1H-imidazo[4,5-c]quinolin-4-amine], the figures for the minimal effective concentration (in the series with interferon (α); in series [1]) were 0.12 µM and 3.33 µM, respectively.
The matching figures for `CCCc1nc2c(N)nc3ccccc3c2n1CCCCS(C)(=O)=O` [Example 30, 1-[4-(methylsulfonyl)butyl]-2-propyl-1H-imidazo[4,5-c]quinolin-4-amine]: 0.37 µM and 3.33 µM.
The matching figures for `CCCCc1nc2c(N)nc3ccccc3c2n1CCCCS(=O)(=O)CC` [Example 39]: 0.04 µM and 0.04 µM.
The matching figures for `CCCCc1nc2c(N)nc3ccccc3c2n1CCCCSC(C)(C)C` [Example 40]: 0.01 µM and 0.01 µM.
As to `CCCCc1nc2c(N)nc3ccccc3c2n1CCCCSc1ccc(F)cc1` [Example 41], the minimal effective concentration (with interferon (α); in series [1]) was 0.37 µM in each case.
With `CCCCc1nc2c(N)nc3ccccc3c2n1CCCCS(=O)(=O)c1ccc(F)cc1` [Example 42], the minimal effective concentration (with interferon (α); in series [1]) was 0.12 µM in each case.
Take `CCc1nc2c(N)nc3ccccc3c2n1CCCCSC(C)C` [Example 43]: the minimal effective concentration is listed as 0.014 µM with interferon (α) and 0.37 µM in series [1].
The matching figures for `CCc1nc2c(N)nc3ccccc3c2n1CCCCSc1cc(Cl)cc(Cl)c1` [Example 44]: 1.11 µM and 10 µM.
Regarding `CCc1nc2c(N)nc3ccccc3c2n1CCCCS(=O)(=O)C1CCCC1` [Example 45], the values for the minimal effective concentration (in the series on interferon (α); in series [1]) were 0.37 µM and 1.11 µM, respectively.
Regarding `CCc1nc2c(N)nc3ccccc3c2n1CCCCS(=O)(=O)c1cc(Cl)cc(Cl)c1` [Example 46], the minimal effective concentration in the series with interferon (α) came to 0.12 µM; in series [1], 0.37 µM.
On to `CCc1nc2c(N)nc3ccccc3c2n1CCCCSC1CCCCC1` [Example 47], for which the minimal effective concentration with interferon (α) stood at 0.37 µM; in series [1], 3.33 µM.
The matching figures for `CCCCSCCCCn1c(CC)nc2c(N)nc3ccccc3c21` [Example 48]: 0.014 µM and 0.12 µM.
Turning to `CCc1nc2c(N)nc3ccccc3c2n1CCCCSc1ccc(Cl)cc1` [Example 49], the minimal effective concentration is 0.37 µM in the series on interferon (α) and 1.11 µM in series [1].
The matching figures for `CCCCS(=O)(=O)CCCCn1c(CC)nc2c(N)nc3ccccc3c21` [Example 50]: 0.37 µM and 1.11 µM.
The matching figures for `CCc1nc2c(N)nc3ccccc3c2n1CCCCSc1ccc(F)cc1` [Example 51]: 0.12 µM and 1.11 µM.
The matching figures for `CCc1nc2c(N)nc3ccccc3c2n1CCCCS(=O)(=O)C(C)C` [Example 52]: 0.37 µM and 1.11 µM.
As to `CCSCCCCn1c(CC)nc2c(N)nc3ccccc3c21` [Example 53], the minimal effective concentration in the series with interferon (α) was found to be 0.04 µM; in series [1], 0.37 µM.
The matching figures for `CCc1nc2c(N)nc3ccccc3c2n1CCCCS(=O)(=O)CC` [Example 54]: 0.37 µM and 1.11 µM.
The matching figures for `CCc1nc2c(N)nc3ccccc3c2n1CCCCS(=O)(=O)C1CCCCC1` [Example 55]: 0.12 µM and 1.11 µM.
As for `CCCCc1nc2c(N)nc3ccccc3c2n1CCS(=O)(=O)C(C)C` [Example 56], the minimal effective concentration (with interferon (α); in series [1]) was 0.37 µM throughout.
For the compound `CCCCc1nc2c(N)nc3ccccc3c2n1CCS(=O)(=O)c1ccccc1` [Example 57], the minimal effective concentration (in the series on interferon (α); in series [1]) was 1.11 µM in each case.
As to `CCCCc1nc2c(N)nc3ccccc3c2n1CCS(=O)(=O)c1ccc(F)cc1` [Example 58], the minimal effective concentration (with interferon (α); in series [1]) was 1.11 µM in each case.
With `CCCCc1nc2c(N)nc3ccccc3c2n1CCSC(C)(C)C` [Example 59], the minimal effective concentration was 0.01 µM in the series with interferon (α) and 0.04 µM in series [1].
The matching figures for `CCCCc1nc2c(N)nc3ccccc3c2n1CCS(=O)(=O)C(C)(C)C` [Example 60]: 0.37 µM and 0.37 µM.
Turning to `CCCCc1nc2c(N)nc3ccccc3c2n1CCSCCC` [Example 61], the figures for the minimal effective concentration (in the series on interferon (α); in series [1]) were 0.04 µM and 0.12 µM, respectively.
The matching figures for `CCCCc1nc2c(N)nc3ccccc3c2n1CCS(=O)(=O)CCC` [Example 62]: 0.12 µM and 0.37 µM.
The matching figures for `CCCCc1nc2c(N)nc3ccccc3c2n1CCSCC(C)C` [Example 63]: 0.04 µM and 0.04 µM.
The matching figures for `CCCCc1nc2c(N)nc3ccccc3c2n1CCS(=O)(=O)CC(C)C` [Example 64]: 0.12 µM and 0.12 µM.
For `CCCCc1nc2c(N)nc3ccccc3c2n1CCSCC` [Example 65], the minimal effective concentration in the series on interferon (α) stood at 0.01 µM; in series [1] it was 0.04 µM.
For the compound `CCCCc1nc2c(N)nc3ccccc3c2n1CCS(=O)(=O)CC` [Example 66], the minimal effective concentration (in the series with interferon (α); in series [1]) was 0.12 µM throughout.
`CCc1nc2c(N)nc3ccccc3c2n1CCCCSc1ncccn1` [Example 72, 2-ethyl-1-[4-(pyrimidin-2-ylthio)butyl]-1H-imidazo[4,5-c]quinolin-4-amine] displayed a melting point of 182 to 185 °C.
Same read-out and setting: the same measure for `Cc1nc2c(N)nc3c(c2n1CCCCS(C)(=O)=O)CCCC3` [Example 74, 2-methyl-1-[4-(methylsulfonyl)butyl]-6,7,8,9-tetrahydro-1H-imidazo[4,5-c]quinolin-4-amine]: 213 to 216 °C; for `Cc1nc2c(N)nc3c(c2n1CCCCCS(C)(=O)=O)CCCC3` [Example 75, 2-methyl-1-[5-(methylsulfonyl)pentyl]-6,7,8,9-tetrahydro-1H-imidazo[4,5-c]quinolin-4-amine]: 172 to 174 °C.
Same read-out and setting: for `Cc1nc2c(N)nc3c(c2n1CCCCS(=O)(=O)C(C)C)CCCC3` [Example 76, 2-methyl-1-{4-[(1-methylethyl)sulfonyl]butyl}-6,7,8,9-tetrahydro-1H-imidazo[4,5-c]quinolin-4-amine] the value was 177 to 178 °C.
